Data taken from paper PMC12320245 (International Journal of Biological Sciences, 2025).

Assays:
astrocytes = assay: Lysosomal pH detection (DND-189 fluorescence); assay type: cell-based; conditions: 10 μM AMX with 100 nM BafA1
[1] = tested on: primary hippocampal neurons; assay: Scratch injury: p-PKA analysis; assay type: cell-based, rat; conditions: 10 μM AMX immediately after scratch, 6 hours post-injury
Method: Primary hippocampal neurons were obtained from embryonic day 18 (E18) Sprague-Dawley rat embryos. Pregnant rats were anesthetized using 2-3% isoflurane in a gas mixture of 70% nitrous oxide and 30% oxygen. Following euthanasia, the hippocampi were carefully dissected, minced, and enzymatically dissociated using TrypLE Express (Gibco, NY, USA) for 10 minutes at 37°C. The tissue was further mechanically dissociated using fire-polished glass pipettes, and the resulting cell suspension was filtered through a 70 μm cell strainer to remove debris. Neurons were seeded at a density of 3 × 10^5 cells per well in 24-well plates pre-coated with poly-L-lysine (Sigma-Aldrich, Saint Louis, MO, USA). […]
A scratch injury model was used to mimic TBI in vitro. […] After the treatment period, neuronal damage and recovery were assessed using appropriate evaluation methods.
Six hours after the scratch assay, cellular activity was terminated by replacing the culture medium with 0.1 M HCl. Cell lysates were then collected and analyzed for PKA activity using a commercial PKA kinase activity assay kit (Abcam, ab139435), following the manufacturer's protocol. […] Substrate phosphorylation was detected using a phospho-specific primary antibody and an HRP-conjugated secondary antibody. […] PKA activity was quantified as optical density (OD) values and expressed relative to control samples.

hippocampus of TBI rats [2] = assay: Controlled cortical impact TBI: hippocampal Western blot; assay type: in vivo, rat
Method: (§1) This study used male Sprague-Dawley rats weighing 300-350 g and aged 8 weeks, obtained from DBL Co. (Chungcheongbuk-do, Republic of Korea). The rats were housed in a controlled environment with a temperature of 20 ± 2 °C, a relative humidity of 55 ± 5%, and a 12-hour light/dark cycle. They were provided ad libitum access to food and water. To minimize stress associated with transportation, animals underwent a one-week acclimatization period before the start of the experiments. All experimental procedures were conducted in compliance with the guidelines of the National Institutes of Health for the care and use of laboratory animals and were approved by the Hallym University Institutional Animal Care and Use Committee (protocol # Hallym 2022-23, approved on July 15, 2022). This manuscript follows the principles outlined in the Animal research: reporting in vivo experiments (ARRIVE) guidelines.
A controlled cortical impact (CCI) model was used to induce TBI in rats. Animals were anesthetized with 1-1.5% isoflurane in a 30:70 oxygen-to-nitrous oxide mixture and securely positioned in a stereotaxic frame. A 3 mm craniotomy was performed using a portable drill at a site 2.8 mm lateral to the midline and 3.0 mm posterior to Bregma. TBI was induced using an Impact One™ Stereotaxic Impactor (Leica Biosystems) equipped with a 3 mm flat-tip, set to deliver an impact at a velocity of 5 m/s and a depth of 3 mm. Throughout the procedure, body temperature was maintained at 36-37.5°C using a homeothermic blanket system to prevent hypothermia. […] At designated time points (3 hours, 24 hours, or 2 weeks post-injury), animals were euthanized via transcardial perfusion with saline, followed by 4% paraformaldehyde (PFA). Brains were post-fixed in 4% PFA for 1 hour, cryoprotected in 30% sucrose, and sectioned at a 30 μm thickness using a cryostat microtome (CM1850; Leica, Wetzlar, Germany). Brain sections were stored in cryoprotectant solution at 4°C until further analysis.
Hippocampal samples were homogenized in a lysis buffer containing RIPA buffer (IBS-BR002, iNtRON, Republic of Korea), phosphatase inhibitor (Sigma, USA), and protease inhibitor (Sigma, USA). The homogenates were centrifuged at 14,000 × g for 20 minutes at 4°C, and the supernatants were collected. Protein concentrations were determined using the Bradford protein assay. For analysis, 25 μg of protein from each sample was mixed with SDS loading buffer, separated through SDS-PAGE, and transferred onto PVDF membranes. Membranes were blocked for 2 hours at room temperature with either 5% skim milk or 3% BSA to minimize nonspecific binding. Subsequently, the membranes were incubated overnight at 4°C with primary antibodies diluted in blocking buffer. The following primary antibodies were used: p-p38 MAPK (1:1000, Cell Signaling), p-eIF2α (1:1000, Cell Signaling), p-PERK (1:1000, Cell Signaling), LAMP2 (1:1000, Invitrogen), LC3B (1:1000, Invitrogen), IL-1β (1:500, Gene Tex), TNF-α (1:500, Abcam), and β-actin (1:10,000, Cell Signaling). After primary antibody incubation, membranes were washed in TBS-T (Bio-Rad) and incubated with secondary antibodies for 1 hour at room temperature. Signals were visualized using a chemiluminescence detection system and captured with a bioimaging instrument (Amersham Imager 680, Marlborough, USA).

hippocampus of TBI rats [3] = assay: Controlled cortical impact TBI: Fluoro-Jade B neuronal death; assay type: in vivo, rat; conditions: ipsilateral CA1, CA3, GCL, hilus, 24 hours post-TBI, vs TBI-vehicle
Method: as §1
A controlled cortical impact (CCI) model was used to induce TBI in rats. […]
Neuronal death was assessed 24 hours after TBI via Fluoro-Jade B (FJB) staining, a method designed for detecting degenerating neurons. […] FJB-positive cells were quantified in hippocampal subregions, including CA1 (Cornu Ammonis 1), CA3 (Cornu Ammonis 3), GCL (granule cell layer), and the hilus.

IκB kinase ε (IKK-ε) = tested on: IκB kinase ε (IKK-ε); design: method as in PMID 23396208; conditions: cited from earlier work
[4] = hippocampus, 24 hours after TBI
[5] = rat hippocampus, 24 hours post-TBI
[6] = rat hippocampus, 24 hours post-TBI, vs TBI-vehicle

In the case of `CC(C)c1ccc2oc3nc(N)c(C(=O)O)cc3c(=O)c2c1` [AMX, amlexanox], the “lysosomal pH (DND-189 fluorescence), reversal of BafA1 effect” value (astrocytes) is reported as “effectively reversed BafA1-induced alkalization”, the “p-PKA levels after scratch injury (ELISA)” value [1] is reported as “restored cAMP and p-PKA levels” and the “IL-1β expression (Western blot)” value (hippocampus of TBI rats [2]; [4]) is reported as “markedly reduced the expression of both cytokines”. The “TNF-α expression (Western blot)” value (hippocampus of TBI rats [2]; [4]) was “markedly reduced the expression of both cytokines”, the LAMP2 expression (hippocampus of TBI rats [2]; [5]) was “preserved LAMP2 and LC3B expression” and the LC3B expression (hippocampus of TBI rats [2]; [5]) was “preserved LAMP2 and LC3B expression”. The “phosphorylation of PERK” value (hippocampus of TBI rats [2]; [6]) was “significantly reduced the phosphorylation levels”, the “phosphorylation of eIF2α” value (hippocampus of TBI rats [2]; [6]) was “significantly reduced the phosphorylation levels” and the “phosphorylation of p38 MAPK” value (hippocampus of TBI rats [2]; [6]) was “significantly reduced the phosphorylation levels”. For the same compound, the “number of FJB-positive degenerating neurons” value (hippocampus of TBI rats [3]) was “significantly reduced the number of FJB-positive degenerating neurons” and the “inhibition of IKK-ε” value (IκB kinase ε (IKK-ε)) was “dual inhibitor”.
